Measurements taken from patent US20240360145A1, “PYRIMIDINE-2,4-DIAMINE DERIVATIVES AS WELL AS PREPARATION METHOD THEREFOR AND USE THEREOF” (LISEN THERAPEUTICS, INC., priority 2022, published 2024).

Columns and labels:
NCI-H1792 cells = assay: Cell viability IC50 (MTT), AMG510-resistant NCI-H1792 cells; type: cell-based; details: Homo sapiens, NCI-H1792 cells (KRAS G12C)
Description: Non-small cell lung cancer cell lines NCI-H1975, NCI-H1650, and NCI-H1792 were cultured in RPMI-1640 medium containing 10% fetal bovine serum and 1% penicillin-streptomycin. 1% sodium pyruvate was additionally added when culturing NCI-H1975 cells. All the cells were cultured in a constant temperature incubator containing 5% CO2 at 37° C.
(1) The cells were cultured to the logarithmic growth phase. When the confluence reached about 90%, the cells were digested with 0.25% trypsin, and complete medium was added to collect the cells. After centrifugation at room temperature, the supernatant was discarded, and the cell precipitate was resuspended with fresh complete medium. […]
(5) The medium was carefully aspirated off, 100 μl of DMSO was added to dissolve the precipitate formed by the reaction with MTT, shaking and mixing to mix the blue-violet crystals well, and the light absorbance value at 492 nm was read with a microplate reader.
(6) IC50 of the compounds for different cells was calculated based on the light absorption value of each group. Specifically, the absorbance value under treatment with different concentrations of compounds was first subtracted from the absorbance value of the blank well, and then the absorbance value of the 0 μM group was taken as 100% to calculate the cell survival rate after treatment with different concentrations of compounds. […]

A375 (melanoma) = assay: Cell viability IC50 (CellTiter-Glo), A375; type: cell-based; details: Homo sapiens, A-375, A375, 72 hours
Description: (§1) The cancer cell lines were cultured to the logarithmic growth phase according to conventional culture methods, and the cells were inoculated into a 384-well plate at a density of 2,000 cells/well in a volume of 40 μl/well. The concentrations of added compounds were: […], 1.67 μM, 0.56 μM, 0.19 μM, 0.062 μM, 0.021 μM, 0.0069 μM, 0.0023 μM, 0.00076 μM, and 0 μM. After 72 hours, cell viability was detected using the CellTiter-Glo™ Detection Kit.

[1] = tested on: KYSE-70 (esophageal cancer); assay: Cell viability IC50 (CellTiter-Glo), KYSE-70; type: cell-based; details: Homo sapiens, KYSE-70, 72 hours
Description: as §1

PE062 primary cells = assay: Cell viability IC50 (CCK-8), primary cells PE062 from small cell lung cancer pleural effusion; type: cell-based; details: PE062, CCK-8
Description: (1) The pleural effusion was poured into a 15 mL or 50 mL of sterilized centrifuge tube for centrifugation. Centrifugation conditions: 800 to 1000 rpm, 5 min.
(2) The precipitate was resuspended and washed for 2 to 3 times with PBS.
(3) The cell precipitate was resuspended with complete culture medium (α-MEM medium containing 10% fetal bovine serum and 2% penicillin-streptomycin), and the flocculent matter in the pleural effusion was removed using a sterilized cell sieve.
(4) The red blood cells in the pleural effusion were removed with lymphocyte separation fluid, and the tumor cells and lymphocyte components were collected. The number of tumor cells was observed under a microscope, and the cells were inoculated.
(5) After 24 hours, the supernatant was discarded, and fresh culture medium was added for further culture.
(6) The cell growth status was observed, and it was determined based on the cell status whether the medium was required to be continuously changed to remove blood cells. When the cells grew to a density of 80% to 90%, the cells were preserved.
(1) Primary cells from lung cancer pleural effusion within 5 generations were cultured to the logarithmic growth phase. […] After centrifugation at room temperature, the supernatant was discarded, and the cell precipitate was resuspended with fresh complete culture medium. After counting, the cells were placed at room temperature for later use. The cells were inoculated into a 384-well plate at a density of 2000 cells/well with a volume of 40 μl/well. The wells at the outermost circle of the plate were not inoculated with cells, and instead, added with sterile water to reduce evaporation of the culture medium.
(2) After overnight culture of the cells, the medium was discarded, and a fresh medium containing different concentrations of compounds was added at 200 μl/well. The dilution method of the compound was as follows: first the compound with the highest concentration of 10 μM was prepared, and then the compound was diluted for 3 times in sequence. […] At the same time, a blank control group was set up, in which only an equal volume of culture medium was added without adding cells. Five replicate wells were set up for each group. The cells were placed in the incubator for further culture.
(3) After 72 hours, 8 μl of CCK-8 solution, which was double-diluted with 10 mM PBS, was added to each well, and the cells were shaken and placed in an incubator at 37° C. for further culture for 2 hours.
(4) The light absorbance value at 450 nm was read using a microplate reader, and the IC50 was calculated according to the absorbance value. The calculation method was the same as above.
(1) Sample information: PE039, PE052, and PE062 were all primary cell samples from pleural effusion of patients with small cell lung cancer, and LT015 was a primary cell sample from bronchoscopic biopsy of a patient with small cell lung cancer.
(2) CCK-8 detection was used to detect the IC50 values of different medicaments (compounds).

Cal-62 (thyroid cancer) = assay: Cell viability IC50 (CellTiter-Glo), Cal-62; type: cell-based; details: Homo sapiens, Cal-62, 72 hours
Description: as §1

[2] = tested on: small cell lung cancer cell line H446 cells; assay: In vivo antitumor effect in mice bearing small cell lung cancer cell line H446 cells (CDX model)
Description: H446 cells in the logarithmic growth phase were suspended in PBS solution, and then inoculated subcutaneously in the right forelimb of nude mice. The cell density was about 2×10^8 cells/mL, and each mouse was inoculated with 0.1 mL of the cell suspension, for a total of 80 mice. When the subcutaneous tumor grew to range from 50 mm^3 to 100 mm^3, 40 tumor-bearing mice were randomly divided into groups and numbered, and drug administration began.
(1) Vehicle blank control group: 5% DMSO+20% PEG 300+75% saline (normal saline);
The cycle repeated twice, and no medication for the final 6 days.
All tumor-bearing mice were killed after 20 days.

LN-18 (glioma) = assay: Cell viability IC50 (CellTiter-Glo), LN-18; type: cell-based; details: Homo sapiens, LN-18, 72 hours
Description: as §1

For `CN1CC2CCC(C1)N2Cc1ccc(Nc2ncc(Cl)c(Nc3ccccc3S(=O)(=O)N(C)C)n2)cc1` [Compound 8, 2-((5-chloro-2-((4-((3-methyl-3,8-diazabicyclo[3.2.1]octan-8-yl)methyl)phenyl)amino)pyrimidin-4-yl)amino)-N,N-dimethylbenzenesulfonamide], which IC50 (NCI-H1792 cells) is on record?
The IC50 was 40.6 nM.

What about the IC50 (A375 (melanoma)) of the same compound?
The IC50 was 23.3 nM.

What about the IC50 [1] of the same compound?
Its IC50 is 122 nM.

And the IC50 (PE062 primary cells)?
Its IC50 is 2.7 nM.

And the IC50 (Cal-62 (thyroid cancer))?
The IC50 was 21.9 nM.

And the toxicity ([2]; H446 CDX nude mice, 15 mg/kg, judged from body weight)?
Its toxicity is “not significant”.

And the “inhibitory effect on tumor volume growth compared with blank control (FIG. 1)” value ([2]; H446 CDX nude mice, intraperitoneal injection, 20 days)?
Its value is “significantly inhibited the growth of tumor volume”.

And the animals survived ([2]; H446 CDX nude mice, intraperitoneal injection, 20 days, compound 8 and TP-0903 15 mg/kg once a day for 13 days, Cisplatin 2.5 mg/kg + Etoposide 4 mg/kg cycles)?
The animals survived was 11 out of 12.

What about the “body weight changes of nude mice (FIG. 2)” value ([2]; during the drug administration period, recovered rapidly after drug withdrawal) of the same compound?
The value was “slight decrease in body weight”.

What about the IC50 (LN-18 (glioma)) of the same compound?
The IC50 was 7.8 nM.
